Test results taken from patent US10849875B2, “Cancer specific lipid targeted peptidomimetics” (University of Houston System, priority 2015, dated 2020).
Positions of bridges follow the written chain, without caps; N, C: chain ends. Non-standard residues stand in square brackets, D forms with d. Residues, ends and D or L forms follow the SMILES beside them. Chains are numbered I, II in the order given. Gly(N-piperonyl) = O=C(O)CNCc1ccc2c(c1)OCO2; N(4-MeOBn)Gly = COc1ccc(CNCC(=O)O)cc1; Nrpe = C[C@@H](NCC(=O)O)c1ccccc1; Nlys = NCCCCNCC(=O)O

Legend:
[1] = Lipid ELISA-like binding assay
Description: The direct binding of PPS1 to PS was tested. An ELISA-like assay was used. Two main lipids typically found on cell membrane, PS and PC, were immobilized separately on a 96-well plates and biotinylated PPS1 was incubated at an increasing concentration gradient. Presence of bound PPS1 was detected by HRP-streptavidin after appropriate blocking and washing. (FIG. 11A), PC was selected as the control because it is the most abundant neutral phospholipid found in the outer leaflet of the normal cell membranes. […] This indicates […] has specificity to PS over PC.
ELISA binding assay on PS and PC: PS and PC (Avanti Polar Lipids) were dissolved in hexane at 10 μg/ml concentration and added to Immulon 1B “U” bottom microtiter plates (Thermo) 50 μl/well. hexane was allowed to evaporate at room temp (in the hood). Plates were blocked by adding 200 μl 1% BSA in PBS to each well and incubated for 1 hour. Each well was washed with 3× w/200 μl PBS. Serial dilutions (0.5 μM to 0.0078 μM) of biotinylated PPS1 and PPS2 were dissolved in blocking buffer (100 μl/well) and incubated for 1 hr on shaker. Washed 5× w/200 μl PBS. Added 100 μl streptavidin-HRP (1:2000 in blocking buffer) to each well and incubated for 30 min. […] Stopped the reaction with 100 μl 0.18M H2SO4 Read OD at 490 nm.
Since PS is selectively exposed on the surface of HCC4017 cells compared with HBEC30KT, it was examined if PPS1D1 (FIG. 9B and FIG. 72) binds to PS directly. In an ELISA-like assay, PS and PC were coated separately on 96-well plates, biotinylated PPS1D1 (FIG. 65) was introduced in a concentration gradient and the bound compound was detected using standard streptavidin-HRP system.
Lipids (Avanti Polar Lipids) were dissolved in hexane at 10 μg/ml and coated on to Immulon 1B “U” bottom microtiter plates (ThermoFisher, MA). […] Plates were washed with 5× PBS and binding was detected with streptavidin-HRP (1:2000 in blocking buffer) followed by 100 μl OPD (Sigma-Aldrich). The reaction was stopped with 100 μl 0.18M H2SO4 and absorbance was read at 490 nm using the spectrophotometer (Spectramax i3, Molecular Devices, CA).

[2] = tested on: HCC4017 xenografts; experiment: Tumor burden effect on HCC4017 xenografts; format: in vivo, mice; conditions: initial data, heterogeneous tumors
Description: The actual tumor burden effects of PPS1D1 on HCC4017 xenografts were studied. The study was planned with 4 groups. […] It took a long time to grow and created a very heterogeneous xenograft population. PPS1D1 treatment was performed, but due to the high heterogeneity of the tumors, most of the mice in every group had to be sacrificed as they reached the maximum allowed limits.

[3] = tested on: HCC4017, H460, HCC95, H1693, H1395 lung cancer cell lines; experiment: MTS cell viability assay on series of lung cancer cell lines; format: cell-based, human
Text: In this current study, the target of PPS1D1 is PS and HCC4017 strongly expresses PS. Our next goal was to evaluate the level of PS externalization on other lung cancer cell lines and the activity profile of PPS1D1 on those cell lines. A variety of lung cancer cell lines HCC4017 (lung adenocarcinoma), H460 (large cell lung cancer), H1395 (lung adenocarcinoma), HCC95 (squamous cell lung carcinoma), H1993 (adenocarcinoma; non-small cell lung cancer), H1695 and HBEC30KT (normal bronchial epithelial cells) were treated with fluorescein-labeled Annexin V (FITC-Annexin V) and the bound fluorescein signal was detected using flow cytometry. […] Standard cell viability (MTS) assay by treating these cell lines with PPS1D1 (1 and 20 μM) and 20 μM of a control compound PC462D1 (FIG. 68) in 96-well plates were performed. […] PPS1D1 had no effect on normal HBEC30KT cells at either concentration.
HCC4017, H460, HCC95, H1693, H1395 and HBEC30KT cells were grown in clear bottom 96 well plates. On second day, lung cancer cells were treated with PPS1, PPS1D1 and control PC462D1 in RPMI medium with 10% FBS containing 3% BSA. HBEC30KT was treated with PPS1, PPS1D1 and control PC462D1 in KSFM media with 3% BSA.

COc1ccc(CN(CC(=O)N(CCCCN)CC(=O)N[C@@H](CCCCN)C(=O)N[C@H](CCCCN)C(=O)N[C@@H](CCSC)C(=O)NCCCC[C@H](NC(=O)[C@H](CCSC)NC(=O)[C@@H](CCCCN)NC(=O)[C@H](CCCCN)NC(=O)CN(CCCCN)C(=O)CN(Cc2ccc(OC)cc2)C(=O)CN(C(=O)CN(Cc2ccc3c(c2)OCO3)C(=O)CN[C@H](C)c2ccccc2)[C@H](C)c2ccccc2)C(N)=O)C(=O)CN(C(=O)CN(Cc2ccc3c(c2)OCO3)C(=O)CN[C@H](C)c2ccccc2)[C@H](C)c2ccccc2)cc1 [PPS1D1] (I: H-[Nrpe][Gly(N-piperonyl)][Nrpe][N(4-MeOBn)Gly][Nlys]K[dK]MK-NH2 / II: H-[Nrpe][Gly(N-piperonyl)][Nrpe][N(4-MeOBn)Gly][Nlys]K[dK]M; amide I:9-II:C; N-terminus assumed)
binding to PC ([1]; PC-coated ELISA plates): very high specificity over the PC
binding to PS ([1]; PS-coated ELISA plates): strongest affinity
Kd ([1]; PS-coated ELISA plates, biotinylated compound, streptavidin-HRP): ~55 nM
tumor growth [2]: capable of reducing the tumor growth
cytotoxicity on lung cancer cell lines ([3]; 1 μM): not at 1 μM
cytotoxicity on lung cancer cell lines ([3]; 20 μM): strong cytotoxicity
